Assays:
Assay type in all cases: functional; call rule not given here
[1] = target: T1, Peroxisome proliferator-activated receptor alpha (Homo sapiens, UniProt Q07869); test: Agonist activity at human recombinant PPARalpha by GAL4 transactivation assay
T1 sequence (Q07869 whole entry): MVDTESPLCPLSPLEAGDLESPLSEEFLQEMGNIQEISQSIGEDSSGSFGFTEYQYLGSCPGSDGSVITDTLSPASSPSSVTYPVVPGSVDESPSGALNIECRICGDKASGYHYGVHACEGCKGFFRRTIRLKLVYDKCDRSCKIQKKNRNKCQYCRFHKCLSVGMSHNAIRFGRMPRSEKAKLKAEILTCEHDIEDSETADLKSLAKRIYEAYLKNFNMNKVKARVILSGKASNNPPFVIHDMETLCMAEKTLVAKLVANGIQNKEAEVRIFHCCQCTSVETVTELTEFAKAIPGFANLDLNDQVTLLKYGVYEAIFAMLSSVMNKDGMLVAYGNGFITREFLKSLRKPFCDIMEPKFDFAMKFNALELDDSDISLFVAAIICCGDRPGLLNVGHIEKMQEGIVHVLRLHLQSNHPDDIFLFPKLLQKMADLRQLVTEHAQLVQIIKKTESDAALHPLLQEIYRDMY

[2] = target: T2, Peroxisome proliferator-activated receptor delta (Homo sapiens, UniProt Q03181); test: Agonist activity at human recombinant PPARdelta by GAL4 transactivation assay
T2 sequence (Q03181 whole entry): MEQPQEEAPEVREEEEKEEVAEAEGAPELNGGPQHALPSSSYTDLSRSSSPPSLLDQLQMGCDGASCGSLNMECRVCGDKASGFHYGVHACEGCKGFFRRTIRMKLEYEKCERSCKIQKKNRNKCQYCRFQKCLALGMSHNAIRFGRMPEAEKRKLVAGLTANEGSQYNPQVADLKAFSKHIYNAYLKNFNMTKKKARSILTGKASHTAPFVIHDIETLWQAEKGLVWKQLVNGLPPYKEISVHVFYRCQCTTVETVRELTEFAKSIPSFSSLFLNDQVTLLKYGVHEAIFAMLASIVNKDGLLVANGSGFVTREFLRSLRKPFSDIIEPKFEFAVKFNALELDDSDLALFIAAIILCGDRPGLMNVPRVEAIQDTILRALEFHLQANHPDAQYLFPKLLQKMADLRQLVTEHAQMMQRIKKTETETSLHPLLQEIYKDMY

[3] = target: T3, Peroxisome proliferator-activated receptor gamma (Homo sapiens, UniProt P37231); test: Agonist activity at human recombinant PPARgamma by GAL4 transactivation assay
T3 sequence (P37231 whole entry): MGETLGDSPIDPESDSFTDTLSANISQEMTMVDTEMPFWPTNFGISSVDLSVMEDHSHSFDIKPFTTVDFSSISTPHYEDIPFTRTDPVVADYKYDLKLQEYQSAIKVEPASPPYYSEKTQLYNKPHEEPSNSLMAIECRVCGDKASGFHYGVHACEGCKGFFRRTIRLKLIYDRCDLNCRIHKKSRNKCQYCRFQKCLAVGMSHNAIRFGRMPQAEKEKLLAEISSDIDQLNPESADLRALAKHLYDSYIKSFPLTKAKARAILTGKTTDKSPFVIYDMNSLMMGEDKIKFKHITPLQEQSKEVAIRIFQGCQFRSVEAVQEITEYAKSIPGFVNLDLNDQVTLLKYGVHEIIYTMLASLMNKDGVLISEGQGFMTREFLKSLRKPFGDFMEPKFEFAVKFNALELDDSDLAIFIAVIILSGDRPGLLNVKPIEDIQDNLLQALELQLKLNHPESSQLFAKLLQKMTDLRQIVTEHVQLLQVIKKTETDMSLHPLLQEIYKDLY

Mus musculus [4] = test: Increase in plasma HDL-C in human apoA1 transgenic mouse at 3 mg/kg after 14 days
Rattus norvegicus [5] = test: Increase in liver weight in Sprague-Dawley rat at 1 mg/kg after 7 days
Rattus norvegicus [6] = test: Decrease in triglyceride level in Sprague-Dawley rat at 1 mg/kg after 7 days; set-up: scale not given: the % may be the effect or the level left
Mus musculus [7] = test: Increase in plasma HDL-C in human apoA1 transgenic mouse at 300 mg/kg after 14 days
Mus musculus [8] = test: Increase in plasma HDL-C in human apoA1 transgenic mouse at 1 mg/kg after 14 days

Work on CCC(Oc1cccc(CN(CCCOc2ccccc2)c2nc3cc(C(F)(F)F)ccc3o2)c1)C(=O)O (centres undefined) yielded an EC50 ([1]; read-out: EC50) of 23 nM, an EC50 ([2]; read-out: EC50) of 160 nM and an EC50 ([3]; read-out: EC50) of 400 nM.

Work on CCC(Oc1cccc(CN(CCCOc2ccccc2)c2nc3cc(C)ccc3o2)c1)C(=O)O (centres undefined) yielded an EC50 ([1]; read-out: EC50) of 100 nM, an EC50 ([2]; read-out: EC50) of 5000 nM and an EC50 ([3]; read-out: EC50) of over 10000 nM.

For CCC(Oc1cccc(CN(CCCOc2ccccc2)c2nc3cc(O)ccc3o2)c1)C(=O)O (centres undefined), the EC50 ([1]; read-out: EC50) was 180 nM, the EC50 ([2]; read-out: EC50) was 140 nM and the EC50 ([3]; read-out: EC50) was over 10000 nM.

For CCC(Oc1cccc(CN(CCCOc2ccc(F)cc2)c2nc3ccccc3o2)c1)C(=O)O (centres undefined), the EC50 ([1]; read-out: EC50) was 8 nM and the EC50 ([3]; read-out: EC50) was over 10000 nM.

CCC(Oc1cccc(CN(CCCOc2ccc(OC)cc2)c2nc3ccccc3o2)c1)C(=O)O (centres undefined) gave an EC50 ([3]; read-out: EC50) of over 10000 nM.

CCC(Oc1cccc(CN(CCCOc2cccc([N+](=O)[O-])c2)c2nc3ccccc3o2)c1)C(=O)O (centres undefined) was tested, and the EC50 ([1]; read-out: EC50) was 24 nM, the EC50 ([2]; read-out: EC50) was 1400 nM and the EC50 ([3]; read-out: EC50) was over 10000 nM.

With CCC(Oc1cccc(CN(CCCOc2ccc(C)cc2)c2nc3ccccc3o2)c1)C(=O)O (centres undefined) the EC50 ([2]; read-out: EC50) was 120 nM and the EC50 ([3]; read-out: EC50) was 210 nM.

CCC(Oc1cccc(CN(CCCOc2ccc(C)c(C)c2)c2nc3ccccc3o2)c1)C(=O)O (centres undefined) showed an EC50 ([1]; read-out: EC50) of 1 nM, an EC50 ([2]; read-out: EC50) of 830 nM and an EC50 ([3]; read-out: EC50) of 750 nM.

CCC(Oc1cccc(CN(CCCOc2ccc(F)cc2F)c2nc3ccccc3o2)c1)C(=O)O (centres undefined) gave an EC50 ([1]; read-out: EC50) of 11 nM, an EC50 ([2]; read-out: EC50) of 6500 nM and an EC50 ([3]; read-out: EC50) of 2100 nM.

CCC(Oc1cccc(CN(CCCOc2ccc(O)cc2)c2nc3ccccc3o2)c1)C(=O)O (centres undefined) was tested, and the EC50 ([1]; read-out: EC50) was 260 nM, the EC50 ([2]; read-out: EC50) was 3 nM and the EC50 ([3]; read-out: EC50) was 1400 nM.

With CC[C@@H](Oc1cccc(CN(CCCOc2ccc(F)cc2)c2nc3ccccc3o2)c1)C(=O)O the Activity (Mus musculus [4]) was 147%, the Activity (Rattus norvegicus [5]) was 20% and the Activity (Rattus norvegicus [6]) was -46%.

With CC[C@H](Oc1cccc(CN(CCCOc2ccc(F)cc2)c2nc3ccccc3o2)c1)C(=O)O the EC50 ([1]; read-out: EC50) was 20 nM, the EC50 ([2]; read-out: EC50) was 1570 nM and the EC50 ([3]; read-out: EC50) was 1190 nM.

With CC(C)(Oc1ccccc1CN(CCOc1ccccc1)c1nc2ccccc2o1)C(=O)O the EC50 [1] was “Not Active”, the EC50 [2] was “Not Active” and the EC50 [3] was “Not Active”.

CC(C)(Oc1ccc(CN(CCOc2ccccc2)c2nc3ccccc3o2)cc1)C(=O)O was tested, and the EC50 [1] was “Not Active”, the EC50 [2] was “Not Active” and the EC50 [3] was “Not Active”.

With CC(C)(Oc1cccc(CN(CCOc2ccccc2)c2nc3ccccc3o2)c1)C(=O)O the EC50 ([1]; read-out: EC50) was 630 nM and the EC50 ([3]; read-out: EC50) was 2100 nM.

In the case of CC[C@H](Oc1cccc(CN(CCCOc2ccc(OC)cc2)c2nc3ccccc3o2)c1)C(=O)O, the EC50 ([2]; read-out: EC50) is reported as 1800 nM and the EC50 ([3]; read-out: EC50) is reported as 1310 nM.

In the case of CC(C)(Oc1cccc(CN(CCCOc2ccccc2)c2nc3ccccc3o2)c1)C(=O)O, the EC50 ([1]; read-out: EC50) is reported as 190 nM, the EC50 ([2]; read-out: EC50) is reported as 1400 nM and the EC50 ([3]; read-out: EC50) is reported as 5000 nM.

CC(Oc1cccc(CN(CCCOc2ccccc2)c2nc3ccccc3o2)c1)C(=O)O (centres undefined) showed an EC50 ([2]; read-out: EC50) of 2700 nM.

In the case of CCC(Oc1cccc(CN(CCCOc2ccccc2)c2nc3ccccc3o2)c1)C(=O)O (centres undefined), the EC50 ([1]; read-out: EC50) is reported as 9 nM and the EC50 ([3]; read-out: EC50) is reported as over 10000 nM.

CC(Oc1cccc(CCN(CCCOc2ccccc2)c2nc3ccccc3o2)c1)C(=O)O (centres undefined) was tested, and the EC50 ([1]; read-out: EC50) was 10 nM, the EC50 ([2]; read-out: EC50) was 2300 nM and the EC50 ([3]; read-out: EC50) was 1800 nM.

Molecule CCC(Oc1cccc(CN(CCCOc2ccccc2)c2nc3ccc(F)cc3o2)c1)C(=O)O (centres undefined) has an EC50 ([1]; read-out: EC50) of 5 nM, an EC50 ([2]; read-out: EC50) of 1900 nM and an EC50 ([3]; read-out: EC50) of 1100 nM.

Molecule CCC(Oc1cccc(CN(CCCOc2ccc(F)c(F)c2)c2nc3ccccc3o2)c1)C(=O)O (centres undefined) has an EC50 ([1]; read-out: EC50) of 2 nM, an EC50 ([2]; read-out: EC50) of 1300 nM and an EC50 ([3]; read-out: EC50) of 1800 nM.

In the case of CC[C@@H](Oc1cccc(CN(CCCOc2ccccc2)c2nc3ccccc3o2)c1)C(=O)O, the Activity (Mus musculus [4]) is reported as 201%, the Activity (Rattus norvegicus [5]) is reported as 19% and the Activity (Rattus norvegicus [6]) is reported as -51%.

CCC(Oc1cccc(CN(CCCOc2ccccc2)c2nc3c(O)cccc3o2)c1)C(=O)O (centres undefined) showed an EC50 ([1]; read-out: EC50) of 160 nM, an EC50 ([2]; read-out: EC50) of 1900 nM and an EC50 ([3]; read-out: EC50) of 2000 nM.

For CCC(Oc1cccc(CN(CCCOc2ccc(S(=O)(=O)OC)cc2)c2nc3ccccc3o2)c1)C(=O)O (centres undefined), the EC50 ([1]; read-out: EC50) was 120 nM and the EC50 ([3]; read-out: EC50) was over 10000 nM.

CC[C@H](Oc1cccc(CN(CCCOc2ccccc2)c2nc3ccccc3o2)c1)C(=O)O was tested, and the EC50 ([1]; read-out: EC50) was 130 nM, the EC50 ([2]; read-out: EC50) was 1660 nM and the EC50 ([3]; read-out: EC50) was 870 nM.

In the case of CC(C)(Oc1cccc(CCCN(CCOc2ccccc2)c2nc3ccccc3o2)c1)C(=O)O, the EC50 ([2]; read-out: EC50) is reported as 800 nM and the EC50 ([3]; read-out: EC50) is reported as 100 nM.

CCC(Oc1cccc(CN(CCCOc2ccccc2)c2nc3cccc(F)c3o2)c1)C(=O)O (centres undefined) gave an EC50 ([1]; read-out: EC50) of 2 nM, an EC50 ([2]; read-out: EC50) of 8000 nM and an EC50 ([3]; read-out: EC50) of 530 nM.

For CCC(Oc1cccc(CN(CCCOc2ccc(C)cc2C)c2nc3ccccc3o2)c1)C(=O)O (centres undefined), the EC50 ([1]; read-out: EC50) was 1 nM, the EC50 ([2]; read-out: EC50) was 110 nM and the EC50 ([3]; read-out: EC50) was 130 nM.

In the case of CCC(Oc1cccc(CN(CCCOc2ccc3c(c2)OCO3)c2nc3ccccc3o2)c1)C(=O)O (centres undefined), the EC50 ([1]; read-out: EC50) is reported as 7 nM, the EC50 ([2]; read-out: EC50) is reported as 1700 nM and the EC50 ([3]; read-out: EC50) is reported as 1800 nM.

In the case of CC(C)OC(=O)C(C)(C)Oc1ccc(C(=O)c2ccc(Cl)cc2)cc1 [FENOFIBRATE], the Activity (Mus musculus [7]) is reported as 145%.

Molecule CC[C@@H](Oc1cccc(CN(CCCOc2ccc(OC)cc2)c2nc3ccccc3o2)c1)C(=O)O [PEMAFIBRATE] has an Activity (Rattus norvegicus [5]) of 25%, an EC50 ([2]; read-out: EC50) of 1580 nM and an Activity (Mus musculus [8]) of 194%. The Activity (Rattus norvegicus [6]) was -49%.

Source: ChEMBL document CHEMBL1140024 (Bioorg Med Chem Lett, 2007)
